Experimental findings from patent publication US20240254119A1 (THIRD HARMONIC BIO, INC., priority 2022, published 2024) are described below.

In series [1] the target is T1, wtKIT (Homo sapiens, UniProt P10721).
T1 construct: 1888289AM in the reaction mixtures
The series is described as follows: Caliper biochemical assay, wtKIT. As to conditions: Table 6, read-out: KIT Biochemical IC50 avg. The procedure, abridged: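 Mobility-shift read-out: after EDTA stop, fluorescent peptide substrate and product resolved electrophoretically on LabChip 3000. Reaction ran 3 h at 25° C with 400 μM ATP, Mn^2+ cofactor, 5.0 nM wtKIT, 1 μM FAM-peptide, pH 7.5 HEPES buffer; no-enzyme wells defined full inhibition.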

Series [2] has as its target T2, CSF-1R (Homo sapiens, UniProt P07333).
T2 construct: purchased Invitrogen PV3249 (lot 662393N)
In words: Caliper biochemical assay, CSF-1R. The following applies: Table 6. The procedure, abridged: (§1)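 Mobility-shift readout: after EDTA quench, fluorescent peptide and product are resolved electrophoretically on a LabChip and measured by fluorescence. Reactions contain enzyme, carboxyfluorescein peptide, ATP, Mn^2+ and compound, run 3 h at 25° C; 100% inhibition control lacks enzyme.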

In series [3] the target is T3, PDGFRα (Homo sapiens, UniProt P16234).
T3 construct: purchased Millipore 14-467 (lot 26321_ACTI)
T3 sequence (P16234 24-1089): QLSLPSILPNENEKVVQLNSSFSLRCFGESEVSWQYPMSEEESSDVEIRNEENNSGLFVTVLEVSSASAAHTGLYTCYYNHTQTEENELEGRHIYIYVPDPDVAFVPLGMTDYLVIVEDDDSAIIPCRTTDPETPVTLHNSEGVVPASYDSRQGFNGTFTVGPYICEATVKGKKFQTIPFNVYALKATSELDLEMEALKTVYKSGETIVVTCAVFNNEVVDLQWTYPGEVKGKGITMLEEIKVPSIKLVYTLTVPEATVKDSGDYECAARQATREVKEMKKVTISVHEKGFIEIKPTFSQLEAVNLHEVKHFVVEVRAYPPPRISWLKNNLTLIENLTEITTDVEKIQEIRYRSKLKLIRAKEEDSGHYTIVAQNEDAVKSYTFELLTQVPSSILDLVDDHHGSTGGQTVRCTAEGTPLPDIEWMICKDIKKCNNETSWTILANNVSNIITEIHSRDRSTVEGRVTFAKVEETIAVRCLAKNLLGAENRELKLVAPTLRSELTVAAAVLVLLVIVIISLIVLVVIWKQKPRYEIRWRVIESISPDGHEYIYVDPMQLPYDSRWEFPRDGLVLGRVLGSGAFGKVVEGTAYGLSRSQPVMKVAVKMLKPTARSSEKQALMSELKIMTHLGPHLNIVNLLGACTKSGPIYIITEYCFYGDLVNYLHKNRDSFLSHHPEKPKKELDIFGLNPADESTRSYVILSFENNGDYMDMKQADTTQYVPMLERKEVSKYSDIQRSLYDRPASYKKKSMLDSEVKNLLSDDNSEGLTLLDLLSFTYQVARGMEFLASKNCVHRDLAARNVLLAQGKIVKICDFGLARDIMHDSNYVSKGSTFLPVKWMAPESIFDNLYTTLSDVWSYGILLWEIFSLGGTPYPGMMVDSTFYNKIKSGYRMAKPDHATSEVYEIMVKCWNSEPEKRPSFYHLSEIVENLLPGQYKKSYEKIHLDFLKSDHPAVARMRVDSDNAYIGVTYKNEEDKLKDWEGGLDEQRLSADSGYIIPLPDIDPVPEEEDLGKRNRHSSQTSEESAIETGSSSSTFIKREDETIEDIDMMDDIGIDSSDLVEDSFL
The series is described as follows: Caliper biochemical assay, PDGFRα. As to conditions: Table 6. The procedure, abridged: as §1

Series [4] concerns the target T4, BCRP (BCRP-MDCKII monolayer) (Homo sapiens, UniProt Q9UNQ0).
T4 construct: host or cells: MDCKII (canine kidney) cells
T4 sequence (Q9UNQ0 1-655): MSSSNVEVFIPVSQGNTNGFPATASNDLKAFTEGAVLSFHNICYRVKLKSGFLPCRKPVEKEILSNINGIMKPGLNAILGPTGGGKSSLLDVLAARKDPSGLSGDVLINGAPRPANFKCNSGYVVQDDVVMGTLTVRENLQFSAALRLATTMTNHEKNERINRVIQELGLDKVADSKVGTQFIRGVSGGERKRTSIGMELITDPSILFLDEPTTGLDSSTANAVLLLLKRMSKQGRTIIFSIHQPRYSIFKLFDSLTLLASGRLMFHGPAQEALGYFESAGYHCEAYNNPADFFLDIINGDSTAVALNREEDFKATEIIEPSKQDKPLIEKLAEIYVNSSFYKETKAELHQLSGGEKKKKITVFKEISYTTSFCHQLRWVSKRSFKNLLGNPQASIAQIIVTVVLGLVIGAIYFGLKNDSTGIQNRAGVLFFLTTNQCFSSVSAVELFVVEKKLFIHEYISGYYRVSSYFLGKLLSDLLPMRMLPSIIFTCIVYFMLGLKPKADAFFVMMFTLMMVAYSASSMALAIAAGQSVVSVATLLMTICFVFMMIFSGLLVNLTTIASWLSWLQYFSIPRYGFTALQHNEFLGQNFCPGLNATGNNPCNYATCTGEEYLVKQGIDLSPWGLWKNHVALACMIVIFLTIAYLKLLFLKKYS
The series is described as follows: MDCKII-BCRP bidirectional transport assay. Format: in vitro ADME. As to conditions: for MDCK-BCRP: Papp A-B: apical to basolateral. The procedure, abridged: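 Efflux ratios were derived from Papp values, alongside recovery, with compounds quantified by LC-MS/MS. Both directions were tested in duplicate across BCRP-MDCKII monolayers used on days 12–15. Incubation ran 120 min at 37° C, 5% CO2, after a 15 min preincubation in assay buffer.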

Series [5] in a line: Kinetic solubility assay. The class given is physicochemical. As to conditions: kinetic solubility, 50 mM PB (pH 7.4), shaken 24 hours at RT. In a few lines:
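Concentration in the filtrate was determined by UPLC-UV or HPLC-UV with a standard curve. Before that, compound (10 mM DMSO stock) in 50 mM PB at pH 7.4 was agitated 24 h at room temperature, then PTFE-filtered with centrifugation.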

A word on the IC50: it is the point on the concentration scale where inhibition reaches its midpoint.

A value given as a limit tells only on which side of the number the result lay.

T1 sequence (P10721 26-976): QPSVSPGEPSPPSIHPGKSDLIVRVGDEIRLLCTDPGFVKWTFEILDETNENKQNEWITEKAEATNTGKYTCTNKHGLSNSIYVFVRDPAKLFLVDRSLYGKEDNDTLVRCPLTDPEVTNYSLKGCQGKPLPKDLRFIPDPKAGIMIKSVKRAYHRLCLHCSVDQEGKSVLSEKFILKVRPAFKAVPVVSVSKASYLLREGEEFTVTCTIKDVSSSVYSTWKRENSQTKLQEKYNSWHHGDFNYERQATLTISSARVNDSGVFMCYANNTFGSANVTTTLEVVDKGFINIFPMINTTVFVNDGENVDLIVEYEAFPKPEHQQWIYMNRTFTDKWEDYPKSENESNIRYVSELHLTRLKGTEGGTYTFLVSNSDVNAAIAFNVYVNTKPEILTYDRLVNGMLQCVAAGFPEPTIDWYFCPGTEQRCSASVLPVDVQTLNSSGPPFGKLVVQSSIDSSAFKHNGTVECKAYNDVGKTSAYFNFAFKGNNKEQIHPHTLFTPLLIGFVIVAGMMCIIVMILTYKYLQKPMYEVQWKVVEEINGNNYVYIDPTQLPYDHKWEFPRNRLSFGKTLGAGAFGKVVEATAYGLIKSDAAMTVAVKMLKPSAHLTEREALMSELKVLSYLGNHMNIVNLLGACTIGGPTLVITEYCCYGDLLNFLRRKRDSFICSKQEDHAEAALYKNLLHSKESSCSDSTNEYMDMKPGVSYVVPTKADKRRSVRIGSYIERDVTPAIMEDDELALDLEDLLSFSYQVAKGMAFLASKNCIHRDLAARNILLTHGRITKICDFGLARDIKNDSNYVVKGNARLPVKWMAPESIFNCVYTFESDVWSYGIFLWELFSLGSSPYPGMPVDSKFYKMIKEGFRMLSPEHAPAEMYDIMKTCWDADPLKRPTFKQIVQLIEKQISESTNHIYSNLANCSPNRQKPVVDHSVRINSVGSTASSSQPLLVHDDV
T2 sequence (P07333 20-972): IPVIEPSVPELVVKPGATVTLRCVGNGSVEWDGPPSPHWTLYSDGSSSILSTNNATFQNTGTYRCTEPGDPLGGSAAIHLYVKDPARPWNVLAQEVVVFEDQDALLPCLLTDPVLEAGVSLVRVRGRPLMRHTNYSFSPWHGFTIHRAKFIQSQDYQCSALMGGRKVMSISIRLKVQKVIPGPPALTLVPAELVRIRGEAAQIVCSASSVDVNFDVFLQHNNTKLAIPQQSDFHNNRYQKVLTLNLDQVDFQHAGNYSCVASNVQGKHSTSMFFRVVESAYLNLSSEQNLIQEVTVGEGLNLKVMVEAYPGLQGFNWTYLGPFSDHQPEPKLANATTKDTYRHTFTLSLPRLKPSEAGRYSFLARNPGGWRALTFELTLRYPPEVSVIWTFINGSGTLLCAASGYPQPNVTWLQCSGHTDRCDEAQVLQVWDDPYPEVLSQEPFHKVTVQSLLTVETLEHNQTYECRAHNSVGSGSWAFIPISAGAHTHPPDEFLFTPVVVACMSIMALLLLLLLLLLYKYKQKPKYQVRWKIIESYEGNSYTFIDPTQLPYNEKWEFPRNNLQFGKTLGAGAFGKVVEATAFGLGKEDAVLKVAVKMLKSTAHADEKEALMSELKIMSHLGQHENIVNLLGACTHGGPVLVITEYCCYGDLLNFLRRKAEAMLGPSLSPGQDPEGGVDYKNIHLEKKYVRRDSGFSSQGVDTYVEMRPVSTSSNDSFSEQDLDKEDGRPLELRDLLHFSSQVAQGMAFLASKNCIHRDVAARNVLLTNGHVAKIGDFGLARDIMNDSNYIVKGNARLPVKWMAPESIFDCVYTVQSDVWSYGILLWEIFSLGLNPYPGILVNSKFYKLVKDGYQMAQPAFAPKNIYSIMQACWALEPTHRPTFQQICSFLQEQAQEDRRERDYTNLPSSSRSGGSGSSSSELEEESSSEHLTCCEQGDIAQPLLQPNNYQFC

For `O=C(Nc1cc(-c2noc([C@H]3C[C@@H]3F)n2)ccc1Br)c1cnc2ccccn12` [Compound I-340], the IC50 in series [1] is not above 50 nM; in series [2] it was not above 50 nM; in series [3], 50 to 500 nM. Moreover, the “MDCK-BCRP: Efflux Ratio” value in series [4] amounted to 0.28. The “MDCK-BCRP: Papp A-B” value in series [4] is 80.4 10^−6 cm/s. In addition, the “Solubility (μM)” value in series [5] was “**** (a solubility less than or equal to 2 μM)”.
For the molecule `Cc1ccc(-c2noc([C@H]3CC(F)(F)CN3)n2)cc1NC(=O)c1cnc2ccccn12` [Compound I-359], the figures for the IC50 in series [1], in series [2] and in series [3] were not above 50 nM, 50 to 500 nM and 500 to 5000 nM, respectively. Moreover, the “MDCK-BCRP: Efflux Ratio” value in series [4] stood at 7.14. Moreover, the “MDCK-BCRP: Papp A-B” value in series [4] is recorded as 4.68 10^−6 cm/s. Besides, in series [5], the “Solubility (μM)” value is “* (a solubility greater than 50 μM)”.
Turning to `Cc1ccc(-c2noc([C@@H](C)O)n2)cc1NC(=O)c1cnc2ccccn12` [Compound I-270], the IC50 in series [1] was 50 to 500 nM; in series [2], not above 50 nM; in series [3] it was 5000 to 30000 nM. Moreover, the “MDCK-BCRP: Efflux Ratio” value in series [4] was 20.8. Also, the “MDCK-BCRP: Papp A-B” value in series [4] was 1.3 10^−6 cm/s. Besides, the “Solubility (μM)” value in series [5] is “* (a solubility greater than 50 μM)”.
Regarding `Cc1ccc(-c2noc(C3CCC3F)n2)cc1NC(=O)c1cnc2ccccn12` (racemic) [Compound I-377], the IC50 was not above 50 nM in series [1], not above 50 nM in series [2] and 500 to 5000 nM in series [3]. The “MDCK-BCRP: Efflux Ratio” value in series [4] worked out at 0.98. For the same molecule, the “MDCK-BCRP: Papp A-B” value in series [4] is reported as 7.81 10^−6 cm/s. Further, in series [5], the “Solubility (μM)” value was “*** (a solubility greater than 2 μM and less than or equal to 10 μM)”.
Consider `COC(=O)N1CC(c2nc(-c3ccc(C)c(NC(=O)c4cnn5cc(C#N)ccc45)c3)no2)C1` [Compound I-204], for which the results for the 50% inhibitory concentration (IC50) in series [1], in series [2] and in series [3] were not above 50 nM, 50 to 500 nM and 5000 to 30000 nM, respectively. The “MDCK-BCRP: Efflux Ratio” value in series [4] is on record as 6.11. In addition, the “MDCK-BCRP: Papp A-B” value in series [4] is given as 3.27 10^−6 cm/s. Moreover, the “Solubility (μM)” value in series [5] was “*** (a solubility greater than 2 μM and less than or equal to 10 μM)”.
